PubChem BioAssay (NCI)
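Protocol summary: plate cells (96-well), add compound at 5 concentrations, incubate 48 h, interpolate endpoints linearly. TGI: concentration producing complete growth inhibition.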

Tests used:
Test in all cases: DTP human tumour cell line panel, 48 h
DU-145 prostate = system: DU-145 prostate
A498 renal = system: A498 renal
KM12 colon = system: KM12 colon
TK-10 renal = system: TK-10 renal
ACHN renal = system: ACHN renal
NCI-H226 lung = system: NCI-H226 lung
SF-268 CNS = system: SF-268 CNS
CCRF-CEM leukemia = system: CCRF-CEM leukemia
EKVX NSCLC = system: EKVX NSCLC
HCT-15 colon = system: HCT-15 colon
SNB-19 CNS = system: SNB-19 CNS
MOLT-4 leukemia = system: MOLT-4 leukemia
T-47D breast = system: T-47D breast
SK-MEL-28 melanoma = system: SK-MEL-28 melanoma
SN12C renal = system: SN12C renal
SK-MEL-2 melanoma = system: SK-MEL-2 melanoma
NCI-H23 lung = system: NCI-H23 lung
CAKI-1 renal = system: CAKI-1 renal
OVCAR-8 ovarian = system: OVCAR-8 ovarian
RXF 393 renal = system: RXF 393 renal
MDA-MB-231 breast = system: MDA-MB-231 breast
SF-295 CNS = system: SF-295 CNS
COLO 205 colon = system: COLO 205 colon
SK-MEL-5 melanoma = system: SK-MEL-5 melanoma
UACC-62 melanoma = system: UACC-62 melanoma
MCF7 breast = system: MCF7 breast
786-0 renal = system: 786-0 renal
HL-60(TB) leukemia = system: HL-60(TB) leukemia
OVCAR-3 ovarian = system: OVCAR-3 ovarian
MDA-MB-435 = system: MDA-MB-435
UO-31 renal = system: UO-31 renal
MDA-N = system: MDA-N
SR leukemia = system: SR leukemia
NCI-H460 lung = system: NCI-H460 lung
HCC-2998 colon = system: HCC-2998 colon
SNB-75 CNS = system: SNB-75 CNS
SF-539 CNS = system: SF-539 CNS
SK-OV-3 ovarian = system: SK-OV-3 ovarian
M14 melanoma = system: M14 melanoma
SW-620 colon = system: SW-620 colon
HOP-62 NSCLC = system: HOP-62 NSCLC
RPMI-8226 leukemia = system: RPMI-8226 leukemia
UACC-257 melanoma = system: UACC-257 melanoma
U251 CNS = system: U251 CNS
BT-549 breast = system: BT-549 breast
OVCAR-4 ovarian = system: OVCAR-4 ovarian
HCT-116 colon = system: HCT-116 colon
HOP-92 NSCLC = system: HOP-92 NSCLC
HT29 colon = system: HT29 colon
A549 NSCLC = system: A549 NSCLC
NCI/ADR-RES ovarian = system: NCI/ADR-RES ovarian
HS 578T breast = system: HS 578T breast
MALME-3M melanoma = system: MALME-3M melanoma
PC-3 prostate = system: PC-3 prostate
IGROV1 ovarian = system: IGROV1 ovarian
OVCAR-5 ovarian = system: OVCAR-5 ovarian
K-562 leukemia = system: K-562 leukemia
NCI-H522 lung = system: NCI-H522 lung
LOX IMVI melanoma = system: LOX IMVI melanoma

CCCCCCC(C)c1ccc2c(c1)C(=O)c1nc3ccncc3c(=O)n1-2 (stereo not drawn)
TGI (DU-145 prostate): > 35.1 µM | TGI (A498 renal): > 100 µM | TGI (KM12 colon): > 30.5 µM | TGI (TK-10 renal): > 65.8 µM | TGI (ACHN renal): > 29.5 µM | TGI (NCI-H226 lung): > 32.3 µM | TGI (SF-268 CNS): > 100 µM | TGI (CCRF-CEM leukemia): 5.83 µM | TGI (EKVX NSCLC): > 43.4 µM | TGI (HCT-15 colon): > 57.7 µM | TGI (SNB-19 CNS): > 33 µM | TGI (MOLT-4 leukemia): 4.09 µM | TGI (T-47D breast): > 40.8 µM | TGI (SK-MEL-28 melanoma): > 31.5 µM | TGI (SN12C renal): > 34.9 µM | TGI (SK-MEL-2 melanoma): 18.7 µM | TGI (NCI-H23 lung): > 31.4 µM | TGI (CAKI-1 renal): > 39.6 µM | TGI (OVCAR-8 ovarian): > 45.2 µM | TGI (RXF 393 renal): 14.7 µM | TGI (MDA-MB-231 breast): > 100 µM | TGI (SF-295 CNS): 20.2 µM | TGI (COLO 205 colon): > 39.1 µM | TGI (SK-MEL-5 melanoma): > 25.4 µM | TGI (UACC-62 melanoma): > 36.9 µM | TGI (MCF7 breast): 32.7 µM | TGI (786-0 renal): > 45.3 µM | TGI (HL-60(TB) leukemia): 1.18 µM | TGI (OVCAR-3 ovarian): 9.12 µM | TGI (MDA-MB-435): 1.17 µM | TGI (UO-31 renal): > 35.7 µM | TGI (MDA-N): 0.6 µM | TGI (SR leukemia): 2.57 µM | TGI (NCI-H460 lung): > 34.7 µM | TGI (HCC-2998 colon): > 20.5 µM | TGI (SNB-75 CNS): > 32.2 µM | TGI (SF-539 CNS): 20.3 µM | TGI (SK-OV-3 ovarian): > 100 µM | TGI (M14 melanoma): 11.4 µM | TGI (SW-620 colon): > 30.6 µM | TGI (HOP-62 NSCLC): 35.7 µM | TGI (RPMI-8226 leukemia): 3.97 µM | TGI (UACC-257 melanoma): > 32.1 µM | TGI (U251 CNS): > 45 µM | TGI (BT-549 breast): > 33.8 µM | TGI (OVCAR-4 ovarian): 10.3 µM | TGI (HCT-116 colon): > 36.8 µM | TGI (HOP-92 NSCLC): > 100 µM | TGI (HT29 colon): 8.78 µM | TGI (A549 NSCLC): 35.2 µM | TGI (NCI/ADR-RES ovarian): 15.7 µM | TGI (HS 578T breast): 25.6 µM | TGI (MALME-3M melanoma): 0.9 µM | TGI (PC-3 prostate): 16.1 µM | TGI (IGROV1 ovarian): > 34.4 µM | TGI (OVCAR-5 ovarian): 21.7 µM | TGI (K-562 leukemia): 2.91 µM

CC(C)(C)c1ccc(-n2c3nc(=O)n(-c4ccccc4C(F)(F)F)c(=O)c-3cc3ccccc32)cc1
TGI (DU-145 prostate): > 100 µM | TGI (NCI-H522 lung): 45.4 µM | TGI (A498 renal): 76.3 µM | TGI (KM12 colon): 37.3 µM | TGI (TK-10 renal): > 100 µM | TGI (ACHN renal): 60 µM | TGI (NCI-H226 lung): 60.8 µM | TGI (SF-268 CNS): > 100 µM | TGI (CCRF-CEM leukemia): 41.9 µM | TGI (EKVX NSCLC): 64.9 µM | TGI (HCT-15 colon): 31.3 µM | TGI (SNB-19 CNS): > 100 µM | TGI (MOLT-4 leukemia): 53 µM | TGI (T-47D breast): > 100 µM | TGI (LOX IMVI melanoma): 28.6 µM | TGI (SK-MEL-28 melanoma): 23.5 µM | TGI (SN12C renal): 59.1 µM | TGI (SK-MEL-2 melanoma): 30.8 µM | TGI (NCI-H23 lung): > 100 µM | TGI (CAKI-1 renal): 66.8 µM | TGI (OVCAR-8 ovarian): 84.6 µM | TGI (RXF 393 renal): 51.7 µM | TGI (MDA-MB-231 breast): 63 µM | TGI (SF-295 CNS): 60.5 µM | TGI (COLO 205 colon): 43.7 µM | TGI (SK-MEL-5 melanoma): 29 µM | TGI (UACC-62 melanoma): 33.8 µM | TGI (MCF7 breast): 72.9 µM | TGI (786-0 renal): > 100 µM | TGI (HL-60(TB) leukemia): 36.1 µM | TGI (OVCAR-3 ovarian): 31.4 µM | TGI (MDA-MB-435): 35.6 µM | TGI (UO-31 renal): > 100 µM | TGI (MDA-N): 74.8 µM | TGI (SR leukemia): 43.6 µM | TGI (NCI-H460 lung): 16 µM | TGI (HCC-2998 colon): 28.4 µM | TGI (SNB-75 CNS): 71.3 µM | TGI (SF-539 CNS): 63.4 µM | TGI (M14 melanoma): 32.3 µM | TGI (SW-620 colon): 62.8 µM | TGI (HOP-62 NSCLC): 40.3 µM | TGI (UACC-257 melanoma): 48 µM | TGI (U251 CNS): 29.6 µM | TGI (BT-549 breast): > 100 µM | TGI (OVCAR-4 ovarian): > 100 µM | TGI (HCT-116 colon): 25.1 µM | TGI (HOP-92 NSCLC): 51.7 µM | TGI (HT29 colon): 37.5 µM | TGI (A549 NSCLC): > 100 µM | TGI (NCI/ADR-RES ovarian): 89.8 µM | TGI (HS 578T breast): 68.1 µM | TGI (PC-3 prostate): 51 µM | TGI (IGROV1 ovarian): > 100 µM | TGI (OVCAR-5 ovarian): 55.2 µM | TGI (K-562 leukemia): 61.7 µM
